Where two headings read alike, the source gives them in different places.
Tests used:
HarmOBP7-wt [1] = target: T1, HarmOBP7-wt (Helicoverpa armigera, UniProt F5ANI5); assay: Competitive binding assay, displacement of 1-NPN from HarmOBP7-wt; details: for Affinity to HarmOBP7 (in words): competitive binding with 1-NPN
Protocol: (§1) Emission fluorescence spectra were recorded on a Hitachi F-4500 at 25°C in a right angle configuration, with a 1 cm light path quartz cuvette and 5 nm slits for both excitation and emission. The protein was dissolved in 50 mM Tris-HCl buffer, pH 7.4, while ligands were added as 1 mM methanol solutions.
The probe was excited at 337 nm and emission spectra were recorded between 380 and 450 nm. […] Dissociation constant for 1-NPN and the stoichiometry of binding was obtained by processing the data with Prism software.

HarmOBP7-m1 = target: T2, HarmOBP7-m1 (Helicoverpa armigera, UniProt F5ANI5); assay: Fluorescence binding of 1-NPN to HarmOBP7-m1 (lacks the last 6 residues)
T2 sequence (F5ANI5 22-142): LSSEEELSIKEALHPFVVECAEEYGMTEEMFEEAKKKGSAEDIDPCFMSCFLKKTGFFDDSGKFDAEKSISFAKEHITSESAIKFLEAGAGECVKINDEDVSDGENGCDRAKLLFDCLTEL
Protocol: (§2) Emission fluorescence spectra were recorded on a Hitachi F-4500 at 25°C in a right angle configuration, with a 1 cm light path quartz cuvette and 5 nm slits for both excitation and emission. […]
(§3) The probe was excited at 337 nm and emission spectra were recorded between 380 and 450 nm. […] Dissociation constant for 1-NPN and the stoichiometry of binding was obtained by processing the data with Prism software. Dissociation constants of the competitors were calculated from the corresponding [IC]50 values (concentrations of ligands halving the initial fluorescence value of 1-NPN), using the equation: KD = [IC50]/1+[1-NPN]/K1-NPN, [1-NPN] being the free concentration of 1-NPN and K1-NPN being the dissociation constant of the complex protein/1-NPN.

HarmOBP7-wt [2] = target: T1, HarmOBP7-wt; assay: Fluorescence binding of 1-NPN to HarmOBP7-wt
Protocol: as §2, §3

HarmOBP7-m2 = HarmOBP7-m2 (Helicoverpa armigera, UniProt F5ANI5); assay: Fluorescence binding of 1-NPN to HarmOBP7-m2 (K123M); details: read-out: Dissociation constant of 1-NPN; HarmOBP7-m2, 2 µM protein in Tris, pH 7.4, three replicates, SD 0.22
Protocol: as §1, §3

[3] = HarmOBP7-wt, 2 µM protein and 2 µM 1-NPN, pH 7.4, concentration of ligand halving initial 1-NPN fluorescence, read-out: [IC]50
[4] = HarmOBP7-wt, calculated from [IC]50: KD = [IC50]/1+[1-NPN]/K1-NPN, read-out: KD (calculated dissociation constant)
[5] = HarmOBP7-wt, 2 µM protein and 2 µM 1-NPN, pH 7.4, values larger than 16 extrapolated from the competitive binding curves, read-out: [IC]50

T1 sequence (F5ANI5 entry or part of it): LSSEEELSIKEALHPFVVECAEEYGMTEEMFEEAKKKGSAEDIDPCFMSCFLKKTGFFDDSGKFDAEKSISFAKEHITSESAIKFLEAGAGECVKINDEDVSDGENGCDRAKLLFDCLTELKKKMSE
Chain of HarmOBP7-m2 (F5ANI5 entry or part of it): as above

Row | Structure (SMILES) | IC50 (HarmOBP7-wt [1]; [3]) [µM] | Kd (HarmOBP7-wt [1]; [4]) [µM] | other results
1 | CCCCCCCCCCCC(C)=O [2-Tridecanone] | 9.6 | 7.3 | 
2 | CCCCCC/C=C\CCCCCCCC=O [Z-9-hexadecenal] |  |  | Affinity to HarmOBP7 (in words) (HarmOBP7-wt [1]; HarmOBP7-wt): good affinity
3 | CCCCOC(=O)c1ccc(C(C)(C)C)cc1 [Butyl p-tert-butyl benzoate] | 6.9 | 5.2 | 
4 | CCCCCCCCCCCCOC(C)=O [Dodecyl acetate] | 5.2 | 3.9 | 
5 | CCCC/C=C\CCCCCCCCCC=O [Z-11-hexadecenal] |  |  | Affinity to HarmOBP7 (in words) (HarmOBP7-wt [1]; HarmOBP7-wt): good affinity
6 | CCCCCCCCCCCCCO [1-Tridecanol] | 4.6 | 3.5 | 
7 | CCCCCCCCCCCCCCCC(=O)OCC [Ethyl palmitate] | 12.6 | 12.6 | 
8 | O=C(O)/C=C/c1ccccc1 [Cinnamic acid] |  |  | IC50 (HarmOBP7-wt [1]): > 25 µM
9 | CCCCCCCCCC(=O)OCC [Ethyl decanoate] |  |  | IC50 (HarmOBP7-wt [1]; [5]): > 16 µM
10 | COC(=O)C=Cc1ccccc1 [Methyl cinnamate] |  |  | IC50 (HarmOBP7-wt [1]; [5]): > 16 µM
11 | CC(C)CCCC(C)CCOC(=O)c1ccccc1 (stereo not shown) [3,7-Dimethyloctylbenzoate] | 3.5 | 2.7 | 
12 | CCCCCCCCCCCCCCCO [1-Pentadecanol] |  |  | IC50 (HarmOBP7-wt [1]; [5]): > 25 µM
13 | CCCCCCCCCCO [1-Decanol] |  |  | IC50 (HarmOBP7-wt [1]): > 16 µM
14 | CCCCCCCCCCC(C)=O [2-Dodecanone] |  |  | IC50 (HarmOBP7-wt [1]; [5]): > 16 µM
15 | CCCCCCCCCCCCCCCCCCO [1-Octadecanol] |  |  | IC50 (HarmOBP7-wt [1]; [5]): > 25 µM
16 | COc1ccc(-c2ccccc2)cc1 [4-Phenylanisole] |  |  | IC50 (HarmOBP7-wt [1]; [5]): > 16 µM
17 | Cc1ccc2ccccc2c1 [2-Methylnaphthalene] |  |  | IC50 (HarmOBP7-wt [1]): > 16 µM
18 | CC(C)(C)c1ccc(C(=O)c2ccccc2)cc1 [p-tert-Butylbenzophenone] | 4.5 | 3.4 | 

Row | Structure (SMILES) | IC50 (HarmOBP7-wt [1]; [3]) [µM] | Kd (HarmOBP7-wt [1]; [4]) [µM] | other results
19 | O=Cc1ccccc1 [Benzaldehyde] |  |  | IC50 (HarmOBP7-wt [1]): 10.8 µM; Kd (HarmOBP7-wt [1]): 8.2 µM
20 | CCCCCCCCCCCCCCCCC=O [Heptadecanal] | 9.1 | 6.9 | 
21 | CCCCCCCCCCCCCCO [1-Tetradecanol] |  |  | IC50 (HarmOBP7-wt [1]): 6.7 µM; Kd (HarmOBP7-wt [1]): 5.1 µM
22 | COc1ccccc1C=CC=O [2-Methoxycinnamaldehyde] | 14.7 | 11.1 | 
23 | COc1cc(/C=C/C=O)ccc1O [Coniferyl aldehyde] |  |  | IC50 (HarmOBP7-wt [1]): 12.7 µM; Kd (HarmOBP7-wt [1]): 9.6 µM
24 | CCCCCCCCCCCCCC=O [Tetradecanal] | 3.2 | 2.4 | 
25 | CC(C)c1ccc(C=O)cc1 [p-Isopropylbenzaldehyde] | 10.5 | 7.9 | 
26 | CCCCCCCCCCCC(=O)OCC [Ethyl laurate] | 4.3 | 3.3 | 
27 | CCCCCCCCCCCCCCCCO [1-Hexadecanol] |  |  | IC50 (HarmOBP7-wt [1]; [5]): > 16 µM
28 | CCCCCCCCCCCCO [1-Dodecanol] |  |  | IC50 (HarmOBP7-wt [1]; [5]): > 25 µM
29 | CCCCCCCCCCC=O [Undecanal] | 10.7 | 8.1 | 
30 | CCCCCCCCCCCCC=O [Tridecanal] | 4.9 | 3.7 | 
31 | CCCCCCCCCCCC=O [Dodecanal] | 10.3 | 7.8 | 
32 | COc1cc(CC(=O)O)ccc1O [Homovanillic acid] |  |  | IC50 (HarmOBP7-wt [1]): > 16 µM
33 | CCCCCCCCCCCCCC(=O)OCC [Ethyl myristate] | 4.7 | 3.5 | 
34 | CCCCOC(=O)/C=C/c1ccccc1 [Butyl cinnamate] | 9.6 | 7.3 | 
35 | CCCCC/C(C=O)=C/c1ccccc1 [α-Amylcinnamaldehyde] | 5.5 | 4.2 | 
36 | c1ccc(Nc2cccc3ccccc23)cc1 [1-NPN, N-phenyl-1-naphthylamine] |  |  | Kd (HarmOBP7-m1; HarmOBP7-m1, 2 µM protein in Tris, pH 7.4, three replicates, SD 1.1, read-out: Dissociation constant of 1-NPN): 6.8 µM; Effect of pH on affinity of 1-NPN (in words) (HarmOBP7-m1; HarmOBP7-m1, pH range 3.5 to 9.5, basic conditions, no significant loss of binding down to pH 3.5): marked increase in affinity; Kd (HarmOBP7-wt [2]; 2 µM protein in Tris, pH 7.4, three replicates, SD 0.63, read-out: Dissociation constant of 1-NPN): 5.5 µM; Effect of pH on affinity of 1-NPN (in words) (HarmOBP7-wt [2]; pH range 3.5 to 9.5, basic conditions, no significant loss of binding down to pH 3.5): marked increase in affinity; Kd (HarmOBP7-m2): 3.2 µM

From paper PMC3555816, “A Lysine at the C-Terminus of an Odorant-Binding Protein is Involved in Binding Aldehyde Pheromone Components in Two Helicoverpa Species” (PLoS ONE, 2013)
